Data taken from PMC6121260, “Sulfated Metabolites of Flavonolignans and 2,3-Dehydroflavonolignans: Preparation and Properties” (International Journal of Molecular Sciences, 2018).
Like-named read-outs stand apart in the source and are kept apart here. Marks after values point to notes of the source that are not given here.

Key:
[1] = DPPH radical scavenging; format: biochemical; settings: mean ± standard error
Experimental: (§1) N,N-dimethyl-p-phenylenediamine (DMPD) and 2,2′-azino-bis(3-ethylbenzothiazolin-6-sulfonic acid (ABTS) cation radical scavenging and ferric reducing antioxidant power (FRAP) were measured using kits from Bioquochem (Llanera-Asturias, Spain). Antiradical activity by 2,2-diphenyl-1-picrylhydrazyl radical scavenging assay, reducing capacity using Folin–Ciocalteau reagent (FCR), and anti-lipoperoxidant activity using inhibition of lipid peroxidation of rat liver microsomes induced by tert-butyl hydroperoxide were determined as described previously with modifications described in detail in our previous research.

[2] = DMPD+ cation radical scavenging; format: biochemical; settings: vitamin C equivalents, mean ± standard error
Experimental: as §1

[3] = Log p, octan-1-ol / phosphate buffer partition; format: physicochemical; settings: octan-1-ol / 6.6 mM phosphate buffer pH 7.4, 25 °C
Experimental: The hydrophobicity of the compounds was determined by measuring their partition coefficient P in a mixture of two immiscible phases—octan-1-ol and 6.6 mM phosphate buffer pH 7.4. Stock solutions (0.5 mM) were prepared in octan-1-ol (parent compounds) and in the buffer (sulfated compounds). The stock solutions (150 µL) were mixed with 150 µL of the immiscible phase in microcentrifuge tubes (1.5 mL); shaken for 2 h (750 rpm, 25 °C); and after incubation, the phases were separated. Water phases were diluted 1:1 with the mobile phase (acetonitrile/deionized water/HCO2H, 5:95:0.1; v/v) and analyzed by HPLC using the gradient G3 (see Section 3.1.3). Octan-1-ol phases were evaporated in the stream of air (70 °C), then dissolved in 10 µL of DMSO, and mixed with 90 µL of mobile phase and analyzed by HPLC. The log p values were calculated from the respective peak heights (h) using the formula log p = log(hoctanol/hbuffer). For comparison, log p values were calculated using the Molinspiration property engine v2016.10 (http://www.molinspiration.com, Molinspiration Cheminformatics, Slovensky Grob, Slovakia) (access on 26th October 2017).

[4] = Ferric reducing antioxidant power (FRAP); format: biochemical; settings: equivalents of Fe^2+, mean ± standard error
Experimental: as §1

[5] = target: T1, aryl sulfotransferase from rat liver (AST IV) (Rattus norvegicus, UniProt P17988); experiment: Substrate specificity of AST IV (whole E. coli cells, p-NPS donor); format: in vitro ADME; design: key: +: isolated sulfated product(s) and/or release of p-nitrophenol (p-NP); –: no formation of p-NP and/or isolated sulfated products; settings: whole E. coli cells expressing AST IV, 37 °C, 72 h
T1 construct: made in house; host or cells: E. coli BL21 (DE3) Gold (whole cells used as catalyst)
T1 sequence (P17988 whole entry): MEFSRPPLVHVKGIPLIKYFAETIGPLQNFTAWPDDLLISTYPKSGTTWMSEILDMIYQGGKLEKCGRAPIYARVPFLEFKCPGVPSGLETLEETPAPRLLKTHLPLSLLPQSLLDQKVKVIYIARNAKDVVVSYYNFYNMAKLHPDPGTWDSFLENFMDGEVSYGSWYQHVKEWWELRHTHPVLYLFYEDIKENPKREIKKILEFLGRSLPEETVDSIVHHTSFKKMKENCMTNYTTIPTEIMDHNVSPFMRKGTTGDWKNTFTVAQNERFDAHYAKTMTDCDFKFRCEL
Experimental: The plasmid bearing astIV gene was kindly provided by Prof. L. Elling, RWTH Aachen, Germany. The enzyme was expressed in E. coli BL21 (DE3) Gold as described, with modifications reported in our previous work. Whole E. coli cells producing the enzyme, freshly prepared according to the literature, were employed in the biotransformation experiments as a catalyst.
Silybin, silybin A, silybin B, silychristin, and silydianin (separately, each 50 mg, 0.104 mmol) and p-nitrophenyl sulfate (p-NPS, 35 mg, 0.136 mmol; Sigma-Aldrich, St. Louis, MO, USA) were dissolved in 3 mL DMSO, and 2 g (wet based) of whole cells expressing AST IV resuspended in K-phosphate buffer (pH 7.5, 17 mL) were added. The reaction mixture was incubated on a rotary shaker at 37 °C for 24 h. The cells were then removed by centrifugation (30 min, 5000 rpm, 5404 R Eppendorf, Germany), a new portion of fresh cells (2 g in 15 mL, wet based, resuspended in K-phosphate buffer) were added to the supernatant and incubated for 24 h. This step was repeated once more with a total reaction time of 72 h. The reaction was monitored by HPLC and after 72 h, the reaction mixtures, containing the sulfated product(s), were purified by preparative HPLC employing Asahipak GS-310 20F (Shodex, Tokyo, Japan) column with isocratic elution with 100% methanol. The fraction containing the putative sulfated product(s) was evaporated, dissolved in 1 mL of 80% methanol, and loaded onto a Sephadex LH-20 column (15 g dry weight, 12 mm i.d.) packed and eluted with 80% methanol. Only one sulfated product was obtained; silybin B 20-O-sulfate (14.5 mg, 0.03 mmol, yield 25%), whose identity was confirmed by comparison with previously published data.

[6] = Folin–Ciocalteu reagent (FCR) reduction; format: biochemical; settings: Folin–Ciocalteau reagent reduction, gallic acid equivalents; mean ± standard error
Experimental: as §1

[7] = ABTS+ cation radical scavenging; format: biochemical; settings: vitamin C equivalents, mean ± standard error
Experimental: as §1

[8] = Inhibition of lipoperoxidation (Lpx) induced by tert-butyl hydroperoxide; format: biochemical; settings: rat liver microsomal membranes, mean ± standard error
Experimental: as §1

[9] = Stability of the isolated sulfate; format: physicochemical; settings: after isolation
Experimental: It quickly decomposed into a mixture of at least five products and, therefore, it was not studied further.
Silydianin (150 mg, 0.311 mmol) was sulfated using the same procedure as for silybin. Silydianin-19-O-sulfate was obtained as a yellowish solid (101 mg, 58.3%). Its structure was determined by HRMS (m/z calcd. for C25H21O13 S 561.07083, found 561.07141) and NMR (see Figure S13 and Table S5, Supplementary Material).

[10] = design: method as in PMID 26260337, PMID 16919302; settings: read-out: DPPH scavenging IC50; cited from earlier work

Compound	IC50 [1] [µM]	DMPD^+ [CE] [2]	logP at 2 h [3]	FRAP [Fe^2+] [4]	Formation of p-NP [5]	FCR [GAE] [6]	ABTS^+ [CE] [7]	IC50 [8] [µM]	DMPD^+ [CE] ([2]; listed as silychristin)	Stability of the compound [9]	Stability of the compound ([9]; listed as silydianin-19-O-sulfate)	IC50 [10] [µM]
COc1cc([C@@H]2Oc3cc([C@H]4Oc5cc(O)cc(O)c5C(=O)[C@@H]4O)ccc3O[C@H]2CO)ccc1O [Silybin B, silybin B, reference compound]	546 ± 17	1.09 ± 0.01 ^n CE	2.17	0.04 ± 0.00 ^q Fe^2+	+ ^a	0.36 ± 0.03 ^k GAE	0.97 ± 0.05 ^i CE	68.6 ± 2.2				
COc1cc(C2Oc3c(O)cc([C@H]4Oc5cc(O)cc(O)c5C(=O)[C@@H]4O)cc3C2CO)ccc1O (some centres unmarked) [Silychristin, reference compound]	37.1 ± 3.1	1.50 ± 0.02^o CE	1.47	0.64 ± 0.06 Fe^2+	+ ^a	1.13 ± 0.23 ^m GAE	1.50 ± 0.09 CE	17.9 ± 0.7	1.5			
COc1cc(C2C3C=C(C4Oc5cc(O)cc(O)c5C(=O)C4O)C4C2COC4(O)C3=O)ccc1OS(=O)(=O)O (centres unmarked) [Silydianin-19-O-sulfate]										unstable	extremely unstable	
O=C1c2c(O)cc(O)cc2OC(c2ccc(O)c(O)c2)C1O (centres unmarked) [taxifolin]												6 to 10
